Marks after values point to notes of the source that are not given here.
What was measured:
Experiment in all cases: PPAR agonist reporter assay (Gal4 hybrid receptor, luciferase)
Type in all cases: cell-based
rPPARα = target: T1, rPPARα (Rattus norvegicus, UniProt P37230)
T1 construct: expressed in transfected cells
T1 sequence (P37230 239-466 limits assumed): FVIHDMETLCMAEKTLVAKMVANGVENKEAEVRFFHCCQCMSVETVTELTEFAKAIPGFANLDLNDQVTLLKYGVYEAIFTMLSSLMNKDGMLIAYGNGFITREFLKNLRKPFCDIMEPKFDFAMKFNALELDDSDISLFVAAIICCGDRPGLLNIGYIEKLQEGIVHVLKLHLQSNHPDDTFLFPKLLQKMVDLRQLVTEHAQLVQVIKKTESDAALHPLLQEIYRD
Protocol: (§1) This study utilized proprietary reporter cells expressing a hybrid receptor comprising the N-terminal Gal4 DNA binding domain fused to the ligand binding domain of the specific human nuclear receptor (hPPARα, hPPARδ, and hPPARγ) and rat nuclear receptor (rPPARα, rPPARδ, and rPPARγ). The reporter vectors used in this Example comprise the firefly luciferase gene functionally linked to the Gal4 upstream activation sequence.
(§2) Nuclear Receptor assay was performed by dispensing 100 μL of a suspension of Reporter Cells in Cell Recovery Medium (CRM) containing 10% charcoal stripped FBS into each well of a white 96-well plate. Test compounds were diluted using compound screening medium (CSM) containing 10% charcoal stripped FBS to generate “2×-concentration” treatment media. Immediately after this dilution step, 100 μL of each diluted 2×-concentration treatment medium was dispensed (in triplicate) into the Reporter Cell-containing assay wells.
(§3) After incubation at 37° C. for 24 hours, the treatment media was discarded. 100 μL of Luciferase Detection Reagent substrate was added to each well and RLUs were quantified from each well to determine nuclear receptor activities.

hPPARδ = target: T2, hPPARδ (Homo sapiens, UniProt Q03181)
T2 construct: expressed in transfected cells
T2 sequence (Q03181 211-439 limits assumed): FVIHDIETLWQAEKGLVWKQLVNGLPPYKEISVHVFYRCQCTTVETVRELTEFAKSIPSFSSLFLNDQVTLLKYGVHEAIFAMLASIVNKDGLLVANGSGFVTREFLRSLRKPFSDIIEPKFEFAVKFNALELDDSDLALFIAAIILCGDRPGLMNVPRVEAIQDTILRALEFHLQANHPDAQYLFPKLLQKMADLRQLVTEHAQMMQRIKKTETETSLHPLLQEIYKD
Protocol: as §1, §2, §3

hPPARα = target: T3, hPPARα (Homo sapiens, UniProt Q07869)
T3 construct: expressed in transfected cells
T3 sequence (Q07869 239-466 limits assumed): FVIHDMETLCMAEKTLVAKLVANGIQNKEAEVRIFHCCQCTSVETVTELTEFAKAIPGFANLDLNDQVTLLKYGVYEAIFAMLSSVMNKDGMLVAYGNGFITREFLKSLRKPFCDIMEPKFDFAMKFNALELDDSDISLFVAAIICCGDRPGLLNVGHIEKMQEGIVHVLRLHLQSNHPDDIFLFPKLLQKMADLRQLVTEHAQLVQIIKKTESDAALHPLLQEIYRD
Protocol: as §1, §2, §3

[1] = at low to higher doses in the dose response curve

Row | SMILES | Fold-Activation (vs. 0.10% DMSO) rPPAR-α (rPPARα; 137 nM) | Fold-Activation (vs. 0.10% DMSO) rPPAR-α (rPPARα; 412 nM) | Fold-Activation (vs. 0.10% DMSO) rPPAR-α (rPPARα; 1,235 nM) | Fold-Activation (vs. 0.10% DMSO) rPPAR-α (rPPARα; 3,704 nM) | Fold-Activation (vs. 0.10% DMSO) rPPAR-α (rPPARα; 11,111 nM) | Fold-Activation (vs. 0.10% DMSO) rPPAR-α (rPPARα; 33,333 nM) | Fold-Activation (vs. 0.10% DMSO) rPPAR-α (rPPARα; 100,000 nM) | Fold-Activation (vs. 0.10% DMSO) rPPAR-α (rPPARα; 300,000 nM) | Fold-Activation (vs. 0.10% DMSO) hPPAR-δ (hPPARδ; 137 nM) | Fold-Activation (vs. 0.10% DMSO) hPPAR-δ (hPPARδ; 412 nM) | Fold-Activation (vs. 0.10% DMSO) hPPAR-δ (hPPARδ; 1,235 nM) | Fold-Activation (vs. 0.10% DMSO) hPPAR-δ (hPPARδ; 3,704 nM) | Fold-Activation (vs. 0.10% DMSO) hPPAR-δ (hPPARδ; 11,111 nM) | Fold-Activation (vs. 0.10% DMSO) hPPAR-δ (hPPARδ; 33,333 nM) | Fold-Activation (vs. 0.10% DMSO) hPPAR-δ (hPPARδ; 100,000 nM) | Fold-Activation (vs. 0.10% DMSO) hPPAR-δ (hPPARδ; 300,000 nM) | Fold-Activation (vs. 0.10% DMSO) hPPAR-α (hPPARα; 137 nM) | Fold-Activation (vs. 0.10% DMSO) hPPAR-α (hPPARα; 412 nM) | Fold-Activation (vs. 0.10% DMSO) hPPAR-α (hPPARα; 1,235 nM) | Fold-Activation (vs. 0.10% DMSO) hPPAR-α (hPPARα; 3,704 nM) | other results
1 | CC/C=C\C[C@H](O)/C=C/C=C\C/C=C\C/C=C\CCCC(=O)OCC [15-HEPE-EE, 15-HEPE ethyl ester] | 1.1 fold | 1.2 fold | 1.2 fold | 1.4 fold | 1.7 fold | 2.6* fold | 1.4 fold | 0.068 fold | 1.4 fold | 2.1* fold | 2.1* fold | 2.4* fold | 5.6* fold | 4.1* fold | 8.0* fold | 0.073 fold | 0.90 fold | 1.1 fold | 1.1 fold | 2.1* fold | agonism activity against rat PPARα (in words) (rPPARα; at medium to higher doses in the dose response curve): mild to moderate agonism activity; agonism activity against human PPARδ (in words) (hPPARδ; [1]): moderate agonism activity; Fold-Activation (vs. 0.10% DMSO) hPPAR-α (hPPARα; 11,111 nM): 4.2* fold; Fold-Activation (vs. 0.10% DMSO) hPPAR-α (hPPARα; 33,333 nM): 6.8* fold; Fold-Activation (vs. 0.10% DMSO) hPPAR-α (hPPARα; 100,000 nM): 5.0* fold; Fold-Activation (vs. 0.10% DMSO) hPPAR-α (hPPARα; 300,000 nM): 0.98 fold; agonism activity against human PPARα (in words) (hPPARα; [1]): moderate agonism activity
2 | CC/C=C\C/C=C\C/C=C\C/C=C\C/C=C\CCCC(=O)OCC [EPA-EE, EPA ethyl ester, reference compound] | 1.3 fold | 1.3 fold | 1.3 fold | 1.3 fold | 1.4 fold | 1.3 fold | 1.3 fold | 1.5 fold | 1.2 fold | 1.2 fold | 1.3 fold | 1.5 fold | 1.4 fold | 1.8 fold | 2.6* fold | 3.8* fold | 0.88 fold | 1.0 fold | 0.90 fold | 0.89 fold | Fold-Activation (vs. 0.10% DMSO) hPPAR-α (hPPARα; 11,111 nM): 0.86 fold; Fold-Activation (vs. 0.10% DMSO) hPPAR-α (hPPARα; 33,333 nM): 0.95 fold; Fold-Activation (vs. 0.10% DMSO) hPPAR-α (hPPARα; 100,000 nM): 1.1 fold; Fold-Activation (vs. 0.10% DMSO) hPPAR-α (hPPARα; 300,000 nM): 2.0* fold
